From patent US20080262097A1, “Formulations” (priority 2005, published 2008)
Converted amounts (≈) assume the structure as drawn. Where two headings read alike, the source gives them in different places.

Columns and labels:
[1] = tested on: S. aureus ATCC 12600-U; experiment: MIC assay; type: cell-based; conditions: Staphylococcus aureus, ATCC12600
Experimental: (§1) The staphylococci and enterococci were cultured and maintained on Mueller-Hinton Medium (agar and broth) at pH 7.2; they were incubated aerobically at 37° C. for 24 hours.
(§2) This is a standard international method for quantitatively assessing the antimicrobial activity of a compound in a liquid medium. The method used a 96-well microtitre plate, capable of holding about 200 μl of liquid per well. […] The culture media were as described above for the relevant test organisms.
(§3) The wells were inoculated with a liquid suspension of freshly grown micro-organism and incubated under the conditions described above. After incubation, the microtitre plate was examined visually (with the aid of a light box) for cell pellets in and/or opaque wells, which would indicate microbial growth. The MIC value was recorded as the lowest concentration of test compound required to inhibit microbial growth, ie, the lowest concentration for which the liquid in the well remained clear.
(§4) The assays were conducted in duplicate and included both negative (culture medium only) and positive (culture medium, diluting solvent and inoculum) controls.

[2] = tested on: S. aureus ATCC 12602; experiment: MIC assay; type: cell-based; conditions: Staphylococcus aureus, ATCC12602
Experimental: as §1, §2, §3, §4

[3] = tested on: S. aureus ATCC 12604; experiment: MIC assay; type: cell-based; conditions: Staphylococcus aureus, ATCC12604
Experimental: as §1, §2, §3, §4

[4] = tested on: S. aureus ATCC 12605; experiment: MIC assay; type: cell-based; conditions: Staphylococcus aureus, ATCC12605
Experimental: as §1, §2, §3, §4

[5] = tested on: S. aureus ATCC 12607; experiment: MIC assay; type: cell-based; conditions: Staphylococcus aureus, ATCC12607
Experimental: as §1, §2, §3, §4

[6] = tested on: S. aureus CPHL EMRSA 17; experiment: MIC assay; type: cell-based; conditions: Staphylococcus aureus
Experimental: as §1, §2, §3, §4

[7] = tested on: S. aureus CPHL GISA HO41340156; experiment: MIC assay; type: cell-based; conditions: Staphylococcus aureus
Experimental: as §1, §2, §3, §4

[8] = tested on: S. aureus CPHL VISA Mu50; experiment: MIC assay; type: cell-based; conditions: Staphylococcus aureus
Experimental: as §1, §2, §3, §4

[9] = tested on: S. epidermidis (NCTC 11047); experiment: MIC assay; type: cell-based; conditions: Staphylococcus epidermidis, NCTC11047
Experimental: as §1, §2, §3, §4

[10] = tested on: S. saprophyticus NCTC 7292; experiment: MIC assay; type: cell-based; conditions: Staphylococcus saprophyticus, NCTC7292
Experimental: as §1, §2, §3, §4

[11] = tested on: Staphylococcus cohnii ATCC 29974; experiment: MIC assay; type: cell-based; conditions: ATCC29974
Experimental: as §1, §2, §3, §4

[12] = tested on: Staphylococcus warneri ATCC 27836; experiment: MIC assay; type: cell-based; conditions: ATCC27836
Experimental: as §1, §2, §3, §4

[13] = tested on: P. acnes PRP-002; experiment: MBC assay; type: cell-based, Propionibacterium acnes; conditions: Cutibacterium acnes, PRP002; P. acnes PRP-002 (resistance Tet/MLS)
Experimental: (§5) The Propionibacterium spp organisms were cultured and maintained on Wilkins-Chalgren Anaerobe Medium (agar and broth) at pH 6.0; cultures were incubated anaerobically at 37° C. for 72 hours.
(§6) This assay, normally carried out after an MIC assay, determines the minimum concentration of a compound that is lethal to the micro-organism being tested.
(§7) These samples were then individually sub-cultured on non-selective agar medium, under the incubation conditions described above. Following incubation they were examined visually for bacterial growth.

[14] = tested on: P. acnes PRP-003; experiment: MBC assay; type: cell-based, Propionibacterium acnes; conditions: Cutibacterium acnes, PRP003; P. acnes PRP-003 (resistance Tet)
Experimental: as §5, §6, §7

[15] = tested on: P. acnes PRP-007; experiment: MBC assay; type: cell-based, Propionibacterium acnes; conditions: Cutibacterium acnes, PRP007; P. acnes PRP-007 (resistance Clin)
Experimental: as §5, §6, §7

[16] = tested on: P. acnes PRP-017; experiment: MBC assay; type: cell-based, Propionibacterium acnes; conditions: Cutibacterium acnes, PRP017; P. acnes PRP-017 (resistance MLS)
Experimental: as §5, §6, §7

[17] = tested on: P. acnes PRP-026; experiment: MBC assay; type: cell-based, Propionibacterium acnes; conditions: Cutibacterium acnes, PRP026; P. acnes PRP-026 (resistance MLS)
Experimental: as §5, §6, §7

[18] = tested on: P. acnes PRP-059; experiment: MBC assay; type: cell-based, Propionibacterium acnes; conditions: Cutibacterium acnes, PRP059; P. acnes PRP-059 (resistance MLS)
Experimental: as §5, §6, §7

[19] = tested on: P. acnes PRP-068; experiment: MBC assay; type: cell-based, Propionibacterium acnes; conditions: Cutibacterium acnes, PRP068; P. acnes PRP-068 (resistance Ery)
Experimental: as §5, §6, §7

[20] = tested on: P. acnes PRP-101; experiment: MBC assay; type: cell-based, Propionibacterium acnes; conditions: Cutibacterium acnes, PRP101; P. acnes PRP-101 (resistance Tet/MLS)
Experimental: as §5, §6, §7

[21] = tested on: P. acnes PRP-102; experiment: MBC assay; type: cell-based, Propionibacterium acnes; conditions: Cutibacterium acnes, PRP102; P. acnes PRP-102 (resistance Tet/MLS)
Experimental: as §5, §6, §7

[22] = tested on: P. acnes PRP-010; experiment: Disc diffusion assay (DDA); type: cell-based, Propionibacterium acnes; conditions: zone diameter, 200 μg per disc
Experimental: (§8) Other propionibacterial strains were also tested, as described in Example 8 below. These included certain antibiotic resistant propionibacteria, such as the two P. acnes strains PRP-010 and PRP-053 which are resistant respectively to macrolides-lincosamides-streptogramins-ketolides (MLSK) and to macrolides-lincosamides-streptogramins (MLS) and tetracycline—in other words, PRP-010 is resistant to erythromycin and clindamycin, and […] to erythromycin, clindamycin and tetracycline.
as §5
(§9) A sterile paper disc was impregnated with a sample of the test compound and a minimum of 30 minutes allowed for the solvents to evaporate as far as possible. The disc was then placed on an agar plate onto which the test micro-organism had been inoculated. The plate was then incubated under the conditions described above, following which it was examined visually for signs of bacterial growth. If the test compound had antimicrobial activity, a circular zone of no growth would be obtained around the disc. The diameter of this zone of “inhibition” was measured using a ProtoCOL™ automated zone sizer (Synbiosis, Cambridge, UK). In general, a greater diameter and/or area of the zone of inhibition indicates a greater antimicrobial activity in the relevant test compound, although other factors such as test compound mobility through the agar gel may also influence the result.
(§10) The area of the zone of inhibition was calculated from the measured zone diameter (D) using the formula π(D/2)^2.

[23] = tested on: P. acnes PRP-053; experiment: Disc diffusion assay (DDA); type: cell-based, Propionibacterium acnes; conditions: zone diameter, 200 μg per disc
Experimental: as §8, §5, §9, §10

SMILES: O=C(OOC(=O)c1ccccc1)c1ccccc1 [benzoyl peroxide]
- MIC ([1]; S. aureus ATCC 12600-U, read-out: MIC): 250 µg/mL (≈ 1030 µM)
- MIC [2]: 125 µg/mL (≈ 516 µM)
- MIC [3]: 125 µg/mL (≈ 516 µM)
- MIC ([4]; S. aureus ATCC 12605, read-out: MIC): 250 µg/mL (≈ 1030 µM)
- MIC ([5]; S. aureus ATCC 12607, read-out: MIC): 250 µg/mL (≈ 1030 µM)
- MIC [6]: 125 µg/mL (≈ 516 µM)
- MIC [7]: 125 µg/mL (≈ 516 µM)
- MIC [8]: 125 µg/mL (≈ 516 µM)
- MIC ([9]; S. epidermidis NCTC 11047, read-out: MIC): 250 µg/mL (≈ 1030 µM)
- MIC ([10]; S. saprophyticus NCTC 7292, read-out: MIC): 250 µg/mL (≈ 1030 µM)
- MIC [11]: 62.5 µg/mL (≈ 258 µM)
- MIC ([12]; Staphylococcus warneri ATCC 27836, read-out: MIC): > 250 µg/mL
- MBC [13]: 31.2 µg/mL (≈ 129 µM)
- MBC [14]: 31.2 µg/mL (≈ 129 µM)
- MBC [15]: 62.5 µg/mL (≈ 258 µM)
- MBC [16]: 62.5 µg/mL (≈ 258 µM)
- MBC [17]: 31.2 µg/mL (≈ 129 µM)
- MBC [18]: 125 µg/mL (≈ 516 µM)
- MBC [19]: 125 µg/mL (≈ 516 µM)
- MBC [20]: 31.2 µg/mL (≈ 129 µM)
- MBC [21]: 62.5 µg/mL (≈ 258 µM)
- DDA [22]: 30.39 (±0.82) mm
- DDA [23]: 29.72 (±0.48) mm

SMILES: CC(C)(C)c1cc(O)ccc1O [TBHQ, t-butyl hydroquinone]
- MIC [1]: 3.9 µg/mL (≈ 23.5 µM)
- MIC [2]: 3.9 µg/mL (≈ 23.5 µM)
- MIC [3]: 7.8 µg/mL (≈ 46.9 µM)
- MIC [4]: 3.9 µg/mL (≈ 23.5 µM)
- MIC [5]: 3.9 µg/mL (≈ 23.5 µM)
- MIC [6]: 1.95 µg/mL (≈ 11.7 µM)
- MIC [7]: 7.8 µg/mL (≈ 46.9 µM)
- MIC [8]: 3.9 µg/mL (≈ 23.5 µM)
- MIC [9]: 3.9 µg/mL (≈ 23.5 µM)
- MIC [10]: 3.9 µg/mL (≈ 23.5 µM)
- MIC [11]: 3.9 µg/mL (≈ 23.5 µM)
- MIC ([12]; Staphylococcus warneri): 3.9 µg/mL (≈ 23.5 µM)
- MBC [13]: 7.8 µg/mL (≈ 46.9 µM)
- MBC [14]: 7.8 µg/mL (≈ 46.9 µM)
- MBC [15]: 7.8 µg/mL (≈ 46.9 µM)
- MBC [16]: 7.8 µg/mL (≈ 46.9 µM)
- MBC [17]: 7.8 µg/mL (≈ 46.9 µM)
- MBC [18]: 7.8 µg/mL (≈ 46.9 µM)
- MBC [19]: 7.8 µg/mL (≈ 46.9 µM)
- MBC [20]: 7.8 µg/mL (≈ 46.9 µM)
- MBC [21]: 15.6 µg/mL (≈ 93.9 µM)
- DDA [22]: 18.71 (±0.18) mm
- DDA [23]: 23.49 (±1.44) mm
